# Experimental data published in patent publication US9468212B2, “Antifungal compositions” (DSM IP ASSETS B.V., priority 2013, dated 2016).
# “And” between values parts separate entries of the source, which are not always exact repeats. Equal values may be shown once.
# Assays:
# Botrytis cinerea = experiment: Treatment of strawberries: wounded, inoculated with Botrytis cinerea, dipped in antifungal composition (Examples 5, 6); assay type: in vivo; details: 20° C.
# Procedure: Twelve fresh, organic strawberries were used per treatment. Each strawberry was wounded with a 0.5 mm long cut and each wound was inoculated with 10 μl of a Botrytis cinerea suspension containing 1×10^5 of spores/ml. After a 3-hour incubation period at 20° C., each strawberry was dipped individually for 1 minute in a freshly prepared aqueous antifungal composition comprising either 500 ppm natamycin (DSM Food Specialties, Delft, The Netherlands), 500 ppm fludioxonil or both. Each antifungal composition also comprised 3.2% (w/w) beeswax, 0.8% (w/w) glycerol, 0.7% (w/w) polyoxyethylene sorbitan monostearate (Tween 60), 0.1% (w/w) polyoxyethylene sorbitan monooleate (Tween 80), 0.05% (w/w) methylhydroxyethyl-cellulose (MH EC), 0.03% (w/w) anti-foaming agent, 0.02% (w/w) xanthan gum, 0.02% (w/w) citric acid, 0.01% (w/w) lactic acid and 0.01% potassium sorbate. A composition without natamycin or fludioxonil was used as control. […] The treated strawberries were incubated in a closed box in the dark at 20° C. for 19 days.
# (§1) The expected antifungal activity (E in %) of the combined antifungal composition comprising both active ingredients was calculated according to the Colby equation (Colby, 1967): E=X+Y−[(X·Y)/100] wherein X and Y are the observed antifungal activities (in %) of the individual active ingredients X and Y, respectively.
# The experiment was conducted as described in Example 5, except for the fact that each wounded and inoculated strawberry was dipped individually for 1 minute in a freshly prepared aqueous antifungal composition comprising either 250 ppm natamycin (DSM Food Specialties, Delft, The Netherlands), 250 ppm fludioxonil or both. During incubation, the treated strawberries were assessed on mould growth according to the two methods described in Example 5.
# Penicillium italicum = experiment: Treatment of oranges: wounded, inoculated with Penicillium italicum, wound treated with antifungal composition (Examples 7-9); assay type: in vivo; details: oranges, 20° C.
# Procedure: as §1
# Eight fresh, organic oranges were used per treatment. Each orange was soaked in a 180 ppm hypochlorite solution for 10 minutes, then rinsed thoroughly with fresh tap water and dried. The peel of each disinfected orange was wounded once using a cork borer according to the method described by de Lapeyre de Bellaire and Dubois (1987). Subsequently, each wound was inoculated with 10 μl of a Penicillium italicum suspension containing 5×10^5 of spores/ml. After incubation for 3 hours at 20° C., each wound and the orange peel area of 1 cm around the wound was treated with in total […] of a freshly prepared aqueous antifungal composition comprising either 500 ppm natamycin (DSM Food Specialties, Delft, The Netherlands), 300 ppm fludioxonil or both. Each antifungal composition also comprised 3.2% (w/w) beeswax, 0.8% (w/w) glycerol, 0.7% (w/w) polyoxyethylene sorbitan monostearate (Tween 60), 0.1% (w/w) polyoxyethylene sorbitan monooleate (Tween 80), 0.05% (w/w) methylhydroxyethyl-cellulose (MHEC), 0.03% (w/w) anti-foaming agent, 0.02% (w/w) xanthan gum, 0.02% (w/w) citric acid, 0.01% (w/w) lactic acid and 0.01% potassium sorbate. A composition without natamycin or fludioxonil was used as control.
# The treated oranges were incubated in a closed box in the dark at 20° C. and assessed on mould growth during a 27-day incubation period.
# (§2) The experiment was conducted as described in Example 7, except for the fact that each wounded and inoculated orange was treated with 150 μl of a freshly prepared aqueous antifungal composition comprising either 250 ppm natamycin (DSM Food Specialties, Delft, The Netherlands), 100 ppm fludioxonil or both. During incubation, the treated oranges were assessed on mould growth according to the two methods described in Example 5.
# as §2, with “500” for “250”, “400” for “100”, “fenpiclonil” for “fludioxonil”, “a 23-day incubation period,” for “incubation,”
structure (smiles),measurement,setting,value
"C[C@@H]1C/C=C/C=C/C=C/C=C/[C@H](O[C@@H]2O[C@H](C)[C@@H](O)[C@H](N)[C@@H]2O)C[C@@H]2O[C@](O)(C[C@@H](O)C[C@H]3O[C@@H]3/C=C/C(=O)O1)C[C@H](O)[C@H]2C(=O)O [Natamycin, natamycin]",Observed antifungal activity O (%),"Botrytis cinerea; 250 ppm natamycin, 250 ppm fludioxonil or both, 6 days",23%
same,Observed antifungal activity O (%),"Botrytis cinerea; 250 ppm natamycin, 250 ppm fludioxonil or both, 7 days",23%
same,Observed antifungal activity O (%),"Botrytis cinerea; 250 ppm natamycin, 250 ppm fludioxonil or both, 8 days",18%
same,Observed antifungal activity O (%),"Botrytis cinerea; 250 ppm natamycin, 250 ppm fludioxonil or both, 9 days",13%
same,Observed antifungal activity O (%),"Botrytis cinerea; 250 ppm natamycin, 250 ppm fludioxonil or both, 10 days",4.8%
same,Observed antifungal activity O (%),"Botrytis cinerea; 250 ppm natamycin, 250 ppm fludioxonil or both, 11 days",4.8%
same,Observed antifungal activity O (%),"Botrytis cinerea; 250 ppm natamycin, 250 ppm fludioxonil or both, 12 days",1.2%
same,Observed antifungal activity O (%),"Botrytis cinerea; 250 ppm natamycin, 250 ppm fludioxonil or both, 13 days",1.2%
same,Observed antifungal activity O (%),"Botrytis cinerea; 250 ppm natamycin, 250 ppm fludioxonil or both, 14 days",1.2%
same,Observed antifungal activity O (%),"Botrytis cinerea; 250 ppm natamycin, 250 ppm fludioxonil or both, 15 days",0%
same,Observed antifungal activity O (%),"Botrytis cinerea; 250 ppm natamycin, 250 ppm fludioxonil or both, 16 days",0%
same,Observed antifungal activity O (%),"Botrytis cinerea; 250 ppm natamycin, 250 ppm fludioxonil or both, 18 days",0%
same,Observed antifungal activity O (%),"Botrytis cinerea; 250 ppm natamycin, 250 ppm fludioxonil or both, 19 days",0%
same,Number of moulded strawberries/total number of 12 strawberries,"Botrytis cinerea; 250 ppm natamycin, 250 ppm fludioxonil or both, Day 6-8",11 and 11/12
same,Number of moulded strawberries/total number of 12 strawberries,"Botrytis cinerea; 250 ppm natamycin, 250 ppm fludioxonil or both, Day 9",11 and 11/12
same,Number of moulded strawberries/total number of 12 strawberries,"Botrytis cinerea; 250 ppm natamycin, 250 ppm fludioxonil or both, Day 10",12 and 12/12
same,Number of moulded strawberries/total number of 12 strawberries,"Botrytis cinerea; 250 ppm natamycin, 250 ppm fludioxonil or both, Day 11",12 and 12/12
same,Number of moulded strawberries/total number of 12 strawberries,"Botrytis cinerea; 250 ppm natamycin, 250 ppm fludioxonil or both, Day 12",12 and 12/12
same,Number of moulded strawberries/total number of 12 strawberries,"Botrytis cinerea; 250 ppm natamycin, 250 ppm fludioxonil or both, Day 13",12 and 12/12
same,Number of moulded strawberries/total number of 12 strawberries,"Botrytis cinerea; 250 ppm natamycin, 250 ppm fludioxonil or both, Day 14",12 and 12/12
same,Number of moulded strawberries/total number of 12 strawberries,"Botrytis cinerea; 250 ppm natamycin, 250 ppm fludioxonil or both, Day 15",12 and 12/12
same,Observed antifungal activity O (%),"Botrytis cinerea; 500 ppm natamycin, 500 ppm fludioxonil or both, 7 days",11%
same,Observed antifungal activity O (%),"Botrytis cinerea; 500 ppm natamycin, 500 ppm fludioxonil or both, 8 days",14%
same,Observed antifungal activity O (%),"Botrytis cinerea; 500 ppm natamycin, 500 ppm fludioxonil or both, 9 days",4.8%
same,Observed antifungal activity O (%),"Botrytis cinerea; 500 ppm natamycin, 500 ppm fludioxonil or both, 10 days",2.4%
same,Observed antifungal activity O (%),"Botrytis cinerea; 500 ppm natamycin, 500 ppm fludioxonil or both, 11 days",2.4%
same,Observed antifungal activity O (%),"Botrytis cinerea; 500 ppm natamycin, 500 ppm fludioxonil or both, 12 days",0%
same,Observed antifungal activity O (%),"Botrytis cinerea; 500 ppm natamycin, 500 ppm fludioxonil or both, 13 days",0%
same,Observed antifungal activity O (%),"Botrytis cinerea; 500 ppm natamycin, 500 ppm fludioxonil or both, 14 days",0%
same,Observed antifungal activity O (%),"Botrytis cinerea; 500 ppm natamycin, 500 ppm fludioxonil or both, 15 days",0%
same,Observed antifungal activity O (%),"Botrytis cinerea; 500 ppm natamycin, 500 ppm fludioxonil or both, 16 days",0%
same,Observed antifungal activity O (%),"Botrytis cinerea; 500 ppm natamycin, 500 ppm fludioxonil or both, 18 days",0%
same,Observed antifungal activity O (%),"Botrytis cinerea; 500 ppm natamycin, 500 ppm fludioxonil or both, 19 days",0%
same,Number of moulded strawberries/total number of 12 strawberries,"Botrytis cinerea; 500 ppm natamycin, 500 ppm fludioxonil or both, Day 7",12 and 12/12
same,Number of moulded strawberries/total number of 12 strawberries,"Botrytis cinerea; 500 ppm natamycin, 500 ppm fludioxonil or both, Day 8",12 and 12/12
same,Number of moulded strawberries/total number of 12 strawberries,"Botrytis cinerea; 500 ppm natamycin, 500 ppm fludioxonil or both, Day 9",12 and 12/12
same,Number of moulded strawberries/total number of 12 strawberries,"Botrytis cinerea; 500 ppm natamycin, 500 ppm fludioxonil or both, Day 10-11",12 and 12/12
same,Number of moulded strawberries/total number of 12 strawberries,"Botrytis cinerea; 500 ppm natamycin, 500 ppm fludioxonil or both, Day 12",12 and 12/12
same,Number of moulded strawberries/total number of 12 strawberries,"Botrytis cinerea; 500 ppm natamycin, 500 ppm fludioxonil or both, Day 13",12 and 12/12
same,Number of moulded strawberries/total number of 12 strawberries,"Botrytis cinerea; 500 ppm natamycin, 500 ppm fludioxonil or both, Day 14",12 and 12/12
same,Number of moulded strawberries/total number of 12 strawberries,"Botrytis cinerea; 500 ppm natamycin, 500 ppm fludioxonil or both, Day 15",12 and 12/12
same,Number of moulded strawberries/total number of 12 strawberries,"Botrytis cinerea; 500 ppm natamycin, 500 ppm fludioxonil or both, Day 16-17",12 and 12/12
same,Observed antifungal activity O (%),"Penicillium italicum; 250 ppm natamycin, 100 ppm fludioxonil or both, 26-27 days",17%
same,Observed antifungal activity O (%),"Penicillium italicum; 250 ppm natamycin, 100 ppm fludioxonil or both, 19 days",36%
same,Observed antifungal activity O (%),"Penicillium italicum; 250 ppm natamycin, 100 ppm fludioxonil or both, 20 days",34%
same,Observed antifungal activity O (%),"Penicillium italicum; 250 ppm natamycin, 100 ppm fludioxonil or both, 21 days",32%
same,Observed antifungal activity O (%),"Penicillium italicum; 250 ppm natamycin, 100 ppm fludioxonil or both, 22 days",29%
same,Observed antifungal activity O (%),"Penicillium italicum; 250 ppm natamycin, 100 ppm fludioxonil or both, 23 days",25%
same,Observed antifungal activity O (%),"Penicillium italicum; 250 ppm natamycin, 100 ppm fludioxonil or both, 25 days",19%
same,Number of moulded oranges/total number of 8 oranges,"Penicillium italicum; 250 ppm natamycin, 100 ppm fludioxonil or both, Day 14-18",6/8
same,Number of moulded oranges/total number of 8 oranges,"Penicillium italicum; 250 ppm natamycin, 100 ppm fludioxonil or both, Day 19-22",7/8
same,Number of moulded oranges/total number of 8 oranges,"Penicillium italicum; 250 ppm natamycin, 100 ppm fludioxonil or both, Day 23-27",7/8
same,Observed antifungal activity O (%),"Penicillium italicum; 500 ppm natamycin, 300 ppm fludioxonil or both, 22-27 days",14%
same,Observed antifungal activity O (%),"Penicillium italicum; 500 ppm natamycin, 300 ppm fludioxonil or both, 18 days",32%
same,Observed antifungal activity O (%),"Penicillium italicum; 500 ppm natamycin, 300 ppm fludioxonil or both, 19 days",29%
same,Observed antifungal activity O (%),"Penicillium italicum; 500 ppm natamycin, 300 ppm fludioxonil or both, 20 days",20%
same,Observed antifungal activity O (%),"Penicillium italicum; 500 ppm natamycin, 300 ppm fludioxonil or both, 21 days",16%
same,Number of moulded oranges/total number of 8 oranges,"Penicillium italicum; 500 ppm natamycin, 300 ppm fludioxonil or both, Day 18-27",6 and 6/8
same,Observed antifungal activity O (%),"Penicillium italicum; 500 ppm natamycin, 400 ppm fenpiclonil or both, 22-23 days",14%
same,Observed antifungal activity O (%),"Penicillium italicum; 500 ppm natamycin, 400 ppm fenpiclonil or both, 12 days",55%
same,Observed antifungal activity O (%),"Penicillium italicum; 500 ppm natamycin, 400 ppm fenpiclonil or both, 13 days",52%
same,Observed antifungal activity O (%),"Penicillium italicum; 500 ppm natamycin, 400 ppm fenpiclonil or both, 14 days",48%
same,Observed antifungal activity O (%),"Penicillium italicum; 500 ppm natamycin, 400 ppm fenpiclonil or both, 15 days",45%
same,Observed antifungal activity O (%),"Penicillium italicum; 500 ppm natamycin, 400 ppm fenpiclonil or both, 16 days",43%
same,Observed antifungal activity O (%),"Penicillium italicum; 500 ppm natamycin, 400 ppm fenpiclonil or both, 18 days",32%
same,Observed antifungal activity O (%),"Penicillium italicum; 500 ppm natamycin, 400 ppm fenpiclonil or both, 19 days",29%
same,Observed antifungal activity O (%),"Penicillium italicum; 500 ppm natamycin, 400 ppm fenpiclonil or both, 20 days",20%
same,Observed antifungal activity O (%),"Penicillium italicum; 500 ppm natamycin, 400 ppm fenpiclonil or both, 21 days",16%
same,Number of moulded oranges/total number of 8 oranges,"Penicillium italicum; 500 ppm natamycin, 400 ppm fenpiclonil or both, Day 14-15",5 and 5/8
same,Number of moulded oranges/total number of 8 oranges,"Penicillium italicum; 500 ppm natamycin, 400 ppm fenpiclonil or both, Day 16",5/8
same,Number of moulded oranges/total number of 8 oranges,"Penicillium italicum; 500 ppm natamycin, 400 ppm fenpiclonil or both, Day 18",6/8
same,Number of moulded oranges/total number of 8 oranges,"Penicillium italicum; 500 ppm natamycin, 400 ppm fenpiclonil or both, Day 19-23",6/8
